From US10316028B2, “Orexin receptor antagonists” (Heptares Therapeutics Limited, priority 2012, dated 2019)

Target: T1, human Orexin-2 receptor (Homo sapiens, UniProt O43614)
T1 construct: expressed in transfected cells; host or cells: HEK293 cells (transient transfection, Genejuice); membranes
T1 sequence (O43614 1-444): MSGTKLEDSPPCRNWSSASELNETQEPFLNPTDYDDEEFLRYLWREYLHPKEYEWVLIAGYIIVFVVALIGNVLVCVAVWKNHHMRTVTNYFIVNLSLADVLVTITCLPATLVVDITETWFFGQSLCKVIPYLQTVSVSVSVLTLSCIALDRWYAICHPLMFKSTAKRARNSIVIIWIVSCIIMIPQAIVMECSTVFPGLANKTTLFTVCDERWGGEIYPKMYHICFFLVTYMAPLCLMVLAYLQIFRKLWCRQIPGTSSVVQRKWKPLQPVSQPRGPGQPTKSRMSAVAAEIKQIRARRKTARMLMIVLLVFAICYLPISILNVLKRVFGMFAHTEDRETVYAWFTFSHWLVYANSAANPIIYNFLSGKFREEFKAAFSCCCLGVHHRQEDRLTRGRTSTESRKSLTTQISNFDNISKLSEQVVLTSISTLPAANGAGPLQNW
Test: 3H-EMPA radioligand binding assay
Conditions: 3H-EMPA displacement, membranes of HEK293 cells transfected with human Orexin-2 receptor; KI by Cheng-Prussoff; read-out: OX2 pKi ave (converted)
Method in brief: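 Membranes from HEK293 cells transiently transfected with human orexin-2 receptor cDNA, assayed with [3H]EMPA. Bound ligand collected on PEI-treated GF/B filters and counted by scintillation; IC50 from inhibition curves, Ki by Cheng-Prusoff.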

Structure (SMILES) | Ki [nM]
COc1ccc(N2C(=O)N(Cc3ccc(Cl)cc3F)c3ccncc3S2(=O)=O)cc1OC [Example 92, 4-(4-Chloro-2-fluorobenzyl)-2-(3,4-dimethoxyphenyl)-2H-pyrido[4,3-e][1,2,4]thiadiazin-3(4H)-one 1,1-dioxide] | 741
COc1ccc(N2C(=O)N(Cc3c(F)cc(F)cc3F)c3ncccc3S2(=O)=O)cc1OC [Example 93, 2-(3,4-Dimethoxyphenyl)-4-(2,4,6-trifluorobenzyl)-2H-pyrido[2,3-e][1,2,4]thiadiazin-3(4H)-one 1,1-dioxide] | 1.2
COc1ccc(N2C(=O)N(Cc3c(F)cccc3Cl)c3ncccc3S2(=O)=O)cc1OC [Example 94, 4-(2-Chloro-6-fluorobenzyl)-2-(3,4-dimethoxyphenyl)-2H-pyrido[2,3-e][1,2,4]thiadiazin-3(4H)-one 1,1-dioxide] | 0.776
COc1cc(F)c(CN2C(=O)N(c3ccc(OC)c(OC)c3)S(=O)(=O)c3cccnc32)c(F)c1 [Example 95, 4-(2,6-Difluoro-4-methoxybenzyl)-2-(3,4-dimethoxyphenyl)-2H-pyrido[2,3-e][1,2,4]thiadiazin-3(4H)-one 1,1-dioxide] | 0.129
COc1ccc(N2C(=O)N(Cc3ncc(F)cc3F)c3ncccc3S2(=O)=O)cc1OC [Example 96, 4-[(3,5-Difluoropyridin-2-yl)methyl]-2-(3,4-dimethoxyphenyl)-2H-pyrido[2,3-e][1,2,4]thiadiazin-3(4H)-one 1,1-dioxide] | 13.2
COc1ccc(N2C(=O)N(Cc3c(F)cc(Cl)cc3F)c3ncccc3S2(=O)=O)cc1OC [Example 97, 4-(4-Chloro-2,6-difluorobenzyl)-2-(3,4-dimethoxyphenyl)-2H-pyrido[2,3-e][1,2,4]thiadiazin-3(4H)-one 1,1-dioxide] | 0.661
COc1cc(N2C(=O)N(Cc3c(F)cc(F)cc3F)c3ncccc3S2(=O)=O)cc(OC)n1 [Example 98, 2-(2,6-Dimethoxypyridin-4-yl)-4-(2,4,6-trifluorobenzyl)-2H-pyrido[2,3-e][1,2,4]thiadiazin-3(4H)-one 1,1-dioxide] | 1.48
COc1ccc(N2C(=O)N(Cc3c(F)cc(F)cc3F)c3ncccc3S2(=O)=O)nc1OC [Example 99, 2-(5,6-Dimethoxypyridin-2-yl)-4-(2,4,6-trifluorobenzyl)-2H-pyrido[2,3-e][1,2,4]thiadiazin-3(4H)-one 1,1-dioxide] | 1.55
Cc1ccc(N2C(=O)N(Cc3c(F)cc(F)cc3F)c3ncccc3S2(=O)=O)cc1C [Example 101, 2-(3,4-Dimethylphenyl)-4-(2,4,6-trifluorobenzyl)-2H-pyrido[2,3-e][1,2,4]thiadiazin-3(4H)-one 1,1-dioxide] | 3.47
COc1cc(F)c(CN2C(=O)N(c3ccc(C)c(C)c3)S(=O)(=O)c3cccnc32)c(F)c1 [Example 102, 4-(2,6-Difluoro-4-methoxybenzyl)-2-(3,4-dimethylphenyl)-2H-pyrido[2,3-e][1,2,4]thiadiazin-3(4H)-one 1,1-dioxide] | 0.776
Cc1cc(C)cc(N2C(=O)N(Cc3c(F)cc(F)cc3F)c3ncccc3S2(=O)=O)c1 [Example 103, 2-(3,5-Dimethylphenyl)-4-(2,4,6-trifluorobenzyl)-2H-pyrido[2,3-e][1,2,4]thiadiazin-3(4H)-one 1,1-dioxide] | 4.27
COc1ccc(N2C(=O)N(Cc3c(F)cc(F)cc3OC)c3ccccc3S2(=O)=O)cc1OC [Example 104, 4-(2,4-Difluoro-6-methoxybenzyl)-2-(3,4-dimethoxyphenyl)-2H-1,2,4-benzothiadiazin-3(4H)-one 1,1-dioxide] | 7.08
COc1ccc(N2C(=O)N(Cc3c(F)cc(F)cc3F)c3ccccc3S2(=O)=O)cc1OC [Example 105, 2-(3,4-Dimethoxyphenyl)-4-(2,4,6-trifluorobenzyl)-2H-1,2,4-benzothiadiazin-3(4H)-one 1,1-dioxide] | 1.95
COc1ccc(N2C(=O)N(Cc3c(F)cc(C)cc3Cl)c3ccccc3S2(=O)=O)cc1OC [Example 106, 4-(2-Chloro-6-fluoro-4-methylbenzyl)-2-(3,4-dimethoxyphenyl)-2H-1,2,4-benzothiadiazin-3(4H)-one 1,1-dioxide] | 0.741
COc1ccc(N2C(=O)N(Cc3c(F)cc(F)cc3Cl)c3ccccc3S2(=O)=O)cc1OC [Example 107, 4-(2-Chloro-4,6-difluorobenzyl)-2-(3,4-dimethoxyphenyl)-2H-1,2,4-benzothiadiazin-3(4H)-one 1,1-dioxide] | 1.05
COc1cc(F)c(CN2C(=O)N(c3ccc(OC)c(OC)c3)S(=O)(=O)c3ccccc32)c(F)c1 [Example 108, 2-(3,4-Dimethoxyphenyl)-4-(2,6-difluoro-4-methoxybenzyl)-2H-1,2,4-benzothiadiazin-3(4H)-one 1,1-dioxide] | 0.468

Structure (SMILES) | Ki [nM]
COc1cc(F)c(CN2C(=O)N(c3cccc(SC)c3)S(=O)(=O)c3ccccc32)c(F)c1 [Example 109, 4-(2,6-Difluoro-4-methoxybenzyl)-2-[3-(methylsulfanyl)phenyl]-2H-1,2,4-benzothiadiazin-3(4H)-one 1,1-dioxide] | 3.24
CSc1cccc(N2C(=O)N(Cc3c(F)cc(F)cc3Cl)c3ccccc3S2(=O)=O)c1 [Example 110, 4-(2-Chloro-4,6-difluorobenzyl)-2-[3-(methylsulfanyl)phenyl]-2H-1,2,4-benzothiadiazin-3(4H)-one 1,1-dioxide] | 2.69
COc1cc(F)c(CN2C(=O)N(c3cccc(S(C)(=O)=O)c3)S(=O)(=O)c3ccccc32)c(F)c1 [Example 111, 4-(2,6-Difluoro-4-methoxybenzyl)-2-[3-(methylsulfonyl)phenyl]-2H-1,2,4-benzothiadiazin-3(4H)-one 1,1-dioxide] | 2.24
CS(=O)(=O)c1cccc(N2C(=O)N(Cc3c(F)cc(F)cc3F)c3ccccc3S2(=O)=O)c1 [Example 112, 2-[3-(Methylsulfonyl)phenyl]-4-(2,4,6-trifluorobenzyl)-2H-1,2,4-benzothiadiazin-3(4H)-one 1,1-dioxide] | 26.9
COc1cc(F)c(CN2C(=O)N(c3ccc(OC)c(OC)c3)S(=O)(=O)c3ccccc32)c(Cl)c1 [Example 113, 4-(2-Chloro-6-fluoro-4-methoxybenzyl)-2-(3,4-dimethoxyphenyl)-2H-1,2,4-benzothiadiazin-3(4H)-one 1,1-dioxide] | 0.0912
Cc1cc(N2C(=O)N(Cc3c(F)cc(F)cc3F)c3ccccc3S2(=O)=O)cc(C)c1O [Example 114, 2-(4-Hydroxy-3,5-dimethylphenyl)-4-(2,4,6-trifluorobenzyl)-2H-1,2,4-benzothiadiazin-3(4H)-one 1,1-dioxide] | 12.9
COc1c(C)cc(N2C(=O)N(Cc3c(F)cc(F)cc3F)c3ccccc3S2(=O)=O)cc1C [Example 115, 2-(4-methoxy-3,5-dimethylphenyl)-4-(2,4,6-trifluorobenzyl)-2H-1,2,4-benzothiadiazin-3(4H)-one 1,1-dioxide] | 0.355
COc1ccc(N2C(=O)N(Cc3c(F)cc(O)cc3F)c3ccccc3S2(=O)=O)cc1OC [Example 116, 4-(2,6-Difluoro-4-hydroxybenzyl)-2-(3,4-dimethoxyphenyl)-2H-1,2,4-benzothiadiazin-3(4H)-one 1,1-dioxide] | 1.15
O=C1N(Cc2c(F)cccc2Cl)c2ccccc2S(=O)(=O)N1CC1CCOCC1 [Example 117, 4-(2-Chloro-6-fluorobenzyl)-2-(tetrahydro-2H-pyran-4-ylmethyl)-2H-1,2,4-benzothiadiazin-3(4H)-one 1,1-dioxide] | 372
CC1(CN2C(=O)N(Cc3c(F)cccc3Cl)c3ccccc3S2(=O)=O)COC1 [Example 118, 4-(2-Chloro-6-fluorobenzyl)-2-[(3-methyloxetan-3-yl)methyl]-2H-1,2,4-benzothiadiazin-3(4H)-one 1,1-dioxide] | 372
Cc1nc(CN2C(=O)N(Cc3c(F)cccc3F)c3ccccc3S2(=O)=O)cs1 [Example 119, 4-(2,6-Difluorobenzyl)-2-[(2-methyl-1,3-thiazol-4-yl)methyl]-2H-1,2,4-benzothiadiazin-3(4H)-one 1,1-dioxide] | 66.1
Cc1noc(C)c1CCN1C(=O)N(Cc2c(F)cccc2F)c2ccccc2S1(=O)=O [Example 120, 4-(2,6-Difluorobenzyl)-2-[2-(3,5-dimethyl-1,2-oxazol-4-yl)ethyl]-2H-1,2,4-benzothiadiazin-3(4H)-one 1,1-dioxide] | 178
COc1ccnc(CN2C(=O)N(Cc3c(F)cccc3F)c3ccccc3S2(=O)=O)c1OC [Example 121, 4-(2,6-Difluorobenzyl)-2-[(3,4-dimethoxypyridin-2-yl)methyl]-2H-1,2,4-benzothiadiazin-3(4H)-one 1,1-dioxide] | 87.1
COc1ccc(N2C(=O)N(Cc3c(F)cccc3Cl)c3ccccc3S2(=O)=O)cn1 [Example 122, 4-(2-Chloro-6-fluorobenzyl)-2-(6-methoxypyridin-3-yl)-2H-1,2,4-benzothiadiazin-3(4H)-one 1,1-dioxide] | 16.6
COc1ccc(N2C(=O)N(Cc3c(F)cccc3Cl)c3c(F)cccc3S2(=O)=O)cn1 [Example 123, 4-(2-Chloro-6-fluorobenzyl)-5-fluoro-2-(6-methoxypyridin-3-yl)-2H-1,2,4-benzothiadiazin-3(4H)-one 1,1-dioxide] | 43.7
